# In ChEMBL document CHEMBL1149908, “Involvement of p21 and FasL in induction of cell cycle arrest and apoptosis by neochamaejasmin A in human prostate LNCaP cancer cells” (J Nat Prod, 2008):
# Activity calls are given as the source filed them. The calls are words filed in the database; no cut-off is given here.
# What was measured:
# LNCaP [1] = test: Increase in intracellular ROS generation in human LNCaP cells at 6.25 ug/ml after 30 mins; type: functional
# LNCaP [2] = test: Apoptotic activity in human LNCaP cells assessed as induction of p21 expression at 12.5 ug/ml after 12 hrs by immunoblot; type: functional, cell-based
# LNCaP [3] = test: Decrease in mitochondrial membrane potential in human LNCaP cells at 50 ug/ml after 18 hrs; type: functional, cell-based
# SW-620 = test: Cytotoxicity against human SW620 cells after 48 hrs by MTT assay; type: functional, cell-based; details: SW-620, 48 h
# LNCaP [4] = test: Reduction of NF-kappaB binding to cyclin D promoter in human LNCaP cells by electrophoretic mobility shift assay; type: cell-based
# LNCaP [5] = test: Cell cycle arrest in human LNCaP cells assessed as accumulation in G1 phase at 6.25 ug/ml after 4 days; type: functional
# LNCaP [6] = test: Induction of procaspase 3 expression in human LNCaP cells at 50 ug/ml after 48 hrs by immunoblot; type: functional, cell-based
# [7] = molecular target: Transcription factor Jun (Homo sapiens) (UniProt P05412); test: Reduction of AP1 binding to cyclin D promoter in human LNCaP cells by electrophoretic mobility shift assay; type: cell-based
# Chain of Transcription factor Jun (Homo sapiens) (P05412 whole entry): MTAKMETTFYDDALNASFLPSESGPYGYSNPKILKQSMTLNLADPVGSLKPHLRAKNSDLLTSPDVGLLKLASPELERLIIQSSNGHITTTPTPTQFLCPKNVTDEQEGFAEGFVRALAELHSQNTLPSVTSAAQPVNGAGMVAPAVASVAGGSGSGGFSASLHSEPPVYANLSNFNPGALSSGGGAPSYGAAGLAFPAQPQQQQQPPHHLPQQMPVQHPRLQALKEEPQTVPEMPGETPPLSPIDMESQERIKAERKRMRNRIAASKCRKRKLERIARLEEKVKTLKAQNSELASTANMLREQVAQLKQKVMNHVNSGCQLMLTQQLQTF
# LNCaP [8] = test: Induction of procaspase 3 expression in human LNCaP cells at 25 ug/ml after 48 hrs by immunoblot; type: functional, cell-based
# LNCaP [9] = test: Induction of apoptosis in human LNCaP cells assessed as procaspase 3 cleavage by immunoblot; type: functional, cell-based
# LNCaP [10] = test: Induction of apoptosis in human LNCaP cells assessed as procaspase 8 cleavage at 50 ug/ml by immunoblot; type: functional, cell-based; details: TDE = time-dependent effect
# LNCaP [11] = test: Decrease in mitochondrial membrane potential in human LNCaP cells at 6.25 ug/ml after 18 hrs; type: functional
# LNCaP [12] = test: Decrease of cyclin D expression in human LNCaP cells after 24 hrs by immunoblotting analysis; type: functional, cell-based
# LNCaP [13] = test: Increase in intracellular ROS generation in human LNCaP cells at 50 ug/ml after 30 mins; type: functional
# LNCaP [14] = test: Cytotoxicity against human LNCaP cells after 48 hrs by MTT assay; type: functional, cell-based
# LNCaP [15] = test: Induction of procaspase 3 expression in human LNCaP cells at 6.25 ug/ml after 48 hrs by immunoblot; type: functional, cell-based
# LNCaP [16] = test: Apoptotic activity in human LNCaP cells assessed as induction of FasL expression after 12 hrs; type: functional, cell-based
# LNCaP [17] = test: Induction of apoptosis in human LNCaP cells assessed as procaspase 3 cleavage at 50 ug/ml by immunoblot; type: functional, cell-based; details: TDE = time-dependent effect
# LNCaP [18] = test: Induction of apoptosis in human LNCaP cells assessed as subG1 phase accumulation at > 6.25 ug/ml after 4 days; type: functional, cell-based
# LNCaP [19] = test: Induction of apoptosis in human LNCaP cells assessed as procaspase 8 cleavage by immunoblot; type: functional, cell-based
# LNCaP [20] = test: Increase in p21 mRNA expression in human LNCaP cells at >12.5 ug/mL after 24 hrs by RT-PCR; type: functional, cell-based
# LNCaP [21] = test: Induction of apoptosis in human LNCaP cells assessed as procaspase 3 cleavage at 12.5 ug/ml by immunoblot; type: functional, cell-based; details: TDE = time-dependent effect
# LNCaP [22] = test: Induction of apoptosis in human LNCaP cells assessed as procaspase 8 cleavage at 12.5 ug/ml by immunoblot; type: functional, cell-based; details: TDE = time-dependent effect
# LNCaP [23] = test: Decrease of PCNA expression in human LNCaP cells after 24 hrs by immunoblotting analysis; type: functional, cell-based
# LNCaP [24] = test: Effect on cell morphology in human LNCaP cells assessed as loss of cell surface structure at => 12.5 ug/mL; type: functional
# LNCaP [25] = test: Cell cycle arrest in human LNCaP cells assessed as accumulation in S phase at 6.25 ug/ml after 4 days; type: functional
# L929 = test: Cytotoxicity against mouse L929 cells after 48 hrs by MTT assay; type: cell-based; details: L929, 48 h
# LNCaP [26] = test: Apoptotic activity in human LNCaP cells assessed as induction of Fas expression at 12.5 ug/ml after 24 hrs by immunoblot; type: functional, cell-based
# LNCaP [27] = test: Apoptotic activity in human LNCaP cells assessed as induction of FasL expression at 12.5 ug/ml after 6 hrs by immunoblot; type: functional, cell-based
# LNCaP [28] = test: Cell cycle arrest in human LNCaP cells assessed as reduction of G1 phase at > 6.25 ug/ml after 4 days; type: functional, cell-based
smiles,measurement,setting,value
O=C1c2c(O)cc(O)cc2O[C@H](c2ccc(O)cc2)[C@@H]1[C@@H]1C(=O)c2c(O)cc(O)cc2O[C@@H]1c1ccc(O)cc1 [NEOCHAMAEJASMIN A],fold change (FC),LNCaP [1],1.5
same,Activity,LNCaP [2],Active
same,Activity,LNCaP [3],Active
same,IC50,SW-620,25.1 µg/mL
same,Activity,LNCaP [4],Active
same,Activity,LNCaP [5],75%
same,Activity,LNCaP [6],Active
same,Activity,[7],Active
same,Activity,LNCaP [8],Active
same,Activity,LNCaP [9],Dose-dependent effect
same,Activity,LNCaP [10],tde
same,fold change (FC),LNCaP [11],1.6
same,Activity,LNCaP [12],Dose-dependent effect
same,fold change (FC),LNCaP [13],3.5
same,IC50,LNCaP [14],12.5 µg/mL
same,Activity,LNCaP [15],Active
same,Activity,LNCaP [16],Dose-dependent effect
same,Activity,LNCaP [17],tde
same,Activity,LNCaP [18],Active
same,Activity,LNCaP [19],Dose-dependent effect
same,Activity,LNCaP [20],Active
same,Activity,LNCaP [21],tde
same,Activity,LNCaP [22],tde
same,Activity,LNCaP [23],Dose-dependent effect
same,Activity,LNCaP [24],>=12.5 ug ml-1
same,Activity,LNCaP [25],<10%
same,IC50,L929,90 µg/mL
same,Activity,LNCaP [26],Active
same,Activity,LNCaP [27],Active
same,Activity,LNCaP [28],Dose-dependent effect
